According to the OligoGym collection:
These antisense oligonucleotides have a phosphorothioate backbone; sugars and methylation of C are not fully specified.

Legend:
[1] = molecular target: INPPL1; conditions: ASO
[2] = molecular target: BIRC2; conditions: ASO
Also: test concentration or dose not given here.

Sequence | remaining target (mRNA or protein) (fraction of control) [1] | remaining target (mRNA or protein) (fraction of control) [2]
AAGTAGTTTTGGTTCCTC | ≥ 1 | 
ACAGACCAGGAGACAGTG | 0.94 | 
ACGGTGGGATAGGAAGGT | ≥ 1 | 
AGACCCACACAGAACAGT | ≥ 1 | 
AGAGCAGGGCAGCACAGA | ≥ 1 | 
AGGTGGGTGGGAAGGAGA | 0.98 | 
AGTGAAAAGCACCAAAGA |  | ≥ 1
ATAACAGACCAATTACTG |  | ≥ 1
ATAATTGGTGGGTCAGCA |  | ≥ 1
ATATAGTTCACCAAACAT |  | ≥ 1
ATGTTGTCACTGCTCTGG | 0.92 | 
ATTCTTATCCACAAATAA |  | ≥ 1
CAATCTGACAAGATCGTG |  | ≥ 1
CACCCCAATAAATAGGCA | ≥ 1 | 
CAGGCGGTAGTTGAGGTC | ≥ 1 | 
CAGTGGTGGAGGTGGAAA | ≥ 1 | 
CATGGCTGATACGGTTCT | 0.98 | 
CATTTCTTCAGCTTGTTT |  | ≥ 1
CCAACCTCAAATGTCCCA | ≥ 1 | 

Sequence | remaining target (mRNA or protein) (fraction of control) [1] | remaining target (mRNA or protein) (fraction of control) [2]
CCAAGGTGGGAGATAATG |  | 0.97
CCAGATTCTGAATAAAGC |  | ≥ 1
CCATAGGATTCATAGCCA | ≥ 1 | 
CCATAGTCCGAGGGCAGT | 0.88 | 
CCTCATAACTTTTCAACC | ≥ 1 | 
CCTTGTCCACCTCACTGT | 0.81 | 
CGCTCTCGCTGTCTCGGA | ≥ 1 | 
CGTTGGTGGCGGTTTCTC | 0.93 | 
CTAGTGTTATCAGAAACG |  | ≥ 1
CTCAGATTTGAAATGCTA |  | ≥ 1
CTCTGGTTCTTCAAATAA | ≥ 1 | 
GACAGCACCAGAGTAACC | 0.69 | 
GACATCACGCCGCAACCC | 0.39 | 
GACCACAAGGAATAAATA |  | ≥ 1
GAGATACTGCCCTGACCC | ≥ 1 | 
GAGTAAGAACCACTGAAC |  | ≥ 1
GCACCAGCCGCCCACCCT | 0.3 | 
GCACCCCAGCCTCCTCCA | 0.79 | 
GGTAACCTAAGTGCTATT |  | ≥ 1

Sequence | remaining target (mRNA or protein) (fraction of control) [1] | remaining target (mRNA or protein) (fraction of control) [2]
TACCTTGAATCTCATCAA |  | ≥ 1
TAGAATTAAGAGGGTTTG |  | ≥ 1
TAGAGTTCACAGGAAAAG |  | ≥ 1
TATATGCAGGCTTCTTTC |  | 0.77
TCAGGTAGGATGAGTATC |  | 0.89
TCGCTTGTAAAGGTATCT |  | ≥ 1
TGCCTTTTATTTATATTT |  | ≥ 1
TGGTAGGTAAGAAATCTG |  | ≥ 1
TTAAGGACTATTCAGCTA |  | ≥ 1
TTAGATGGCTTCAAGTGT |  | 0.9
TTAGTTAGCCATAAAATT |  | ≥ 1
TTCCCAACACCTCAAGCC |  | 0.45
TTCCCAGTTACTGAGCTT |  | 0.22
TTCCTGGTTTCCAGTTCT |  | 0.54
TTGGCTTAAAGTTCAAAA |  | ≥ 1
TTTCTCATTGGAGACGTA |  | 0.68
TTTCTTCACATGAACTAA |  | ≥ 1
TTTTACTTTGAACTGTTT |  | ≥ 1
